Experiments:
[1] = test system: full panel of 59 cancer cells; experiment: NCI one-dose screen (SRB), full panel; format: cell-based, human; settings: mean over full panel of 59 cell lines, 10 µM single dose; for inhibition at 10 µM: Homo sapiens, read-out: MGI% (mean growth inhibition percentage)
Experimental: The growth percentage (G%) and cell viability of the herein target compounds 6a–l, 7a,b, and 9a–c have been screened towards a full panel of 59 cancer cells at NCI’s Developmental Therapeutics Program (NCI-DTP, MD, USA)[21]. The submitted analogues were initially examined for preliminary in vitro anticancer activity using sulforhodamine B (SRB) assay at 10 µM as a single dose to evaluate cell growth and viability according to the procedure of Drug Evaluation Branch[22]^,[23].
Different types of tumours – colon, NSCLC, leukaemia, CNS, renal, breast, ovarian, melanoma, and prostate cancers – were investigated as a full panel of 59 cell lines, and the attained results are cited in Figures S1–S17 (see Supplementary Material) where the value recorded is the growth relative to that of both the negative control and zero-time number of cells in which both growth inhibition (GI%; 0–100%) and lethality (L%; 0–100%) percentages can be identified. The growth inhibition means percentages (MGI%) for the examined target analogues towards the different treated 59 cancer cells were presented in Figure 2.
The designed analogues were submitted to NCI-Chemotherapeutic Agents Repository (MD, USA) for screening on a panel of 59 cancer cell lines. All compounds were initially examined at 10 µM concentration (Single-Dose Screen), and then the most efficient analogue 6i was screened further at 0.01–100 µM (Five-Dose Screen). The screening procedures were performed according to NCI-Drug Evaluation Branch protocol using SRB protein assay, as described previously[21]^,[66]. The experimental procedures were detailed in the Supporting Information.

PC-3 (Prostate cancer) = experiment: MTT cytotoxicity assay; format: cell-based, human; settings: Homo sapiens; PC-3; MTT, 48 h; mean ± SD from triplicates
Experimental: (§1) The MTT assay was carried out according to the procedure cited earlier. Briefly, in a 96-well plate, either cancer or normal cells were seeded (10^6 cells/cm^2; 100 µL/well) and incubated for 12 h at 37 °C and CO2 (5%), then serial dilutions of compound 6i were added and incubated for 48 h using DMSO control (0.5% V/V). MTT (3-(4,5-dimethylthiazoyl)-2,5-diphenyl-tetrazolium bromide; Cat. No. M-5655) 5 mg/mL was then added. After 4 h incubation, the formed MTT formazan crystals were solubilised by 10% Triton X-100 plus 0.1 N HCl in anhydrous isopropanol. The absorbance was read using a Bioline plate reader at λ570–630 nm[25–29]. The selectivity of 6i towards HSF cells was also determined as follows[30]^,[31]: SI=IC50HSF cells/IC50of cancer cells

MCF-7 (Breast cancer) = experiment: MTT cytotoxicity assay; format: cell-based, human; settings: Homo sapiens, MCF7; MCF-7; MTT, 48 h; mean ± SD from triplicates
Experimental: as §1

OVCAR-3 (Ovarian Cancer) = experiment: MTT cytotoxicity assay; format: cell-based, human; settings: Homo sapiens, OVCAR-3, 48 h, OVCAR-3; MTT, 48 h; mean ± SD from triplicates
Experimental: as §1

[2] = test system: HSF (Normal human skin fibroblast) cells; experiment: MTT cytotoxicity assay; format: cell-based; settings: HSF normal fibroblasts, 48 h, mean ± SD from triplicates
Experimental: The results hinted that 6i elicited stronger cytotoxicity and higher selectivity for cancer than normal cells.
as §1

In the case of `CCOC(=O)CC[C@H](NC(=O)c1ccc(NC(=O)Cn2cnc3c(c(SC)nn3-c3ccc(Br)cc3)c2=O)cc1)C(=O)OCC` [Compound 6k], the “MGI% (mean growth inhibition percentage)” value [1] is reported as “failed to demonstrate MGI%”.
`CCOC(=O)CC[C@H](NC(=O)c1ccc(NC(=O)CSC2=NC(C)=C(C(=O)OCC)[C@@H](c3ccc(Cl)cc3)N2)cc1)C(=O)OCC` [Compound 9b] showed an inhibition at 10 µM [1] of 33.9%.
Compound `CCOC(=O)CC[C@H](NC(=O)c1ccc(NC(=O)CSC2=NC(C)=C(C(=O)OCC)[C@@H](c3ccc(Br)cc3)N2)cc1)C(=O)OCC` [Compound 9c] has an inhibition at 10 µM [1] of 36.9%.
In the case of `CN(Cc1cnc2nc(N)nc(N)c2n1)c1ccc(C(=O)N[C@@H](CCC(=O)O)C(=O)O)cc1` [MTX, methotrexate, reference compound], the IC50 (PC-3 (Prostate cancer)) is reported as 2.72 ± 0.14 µM, the IC50 (MCF-7 (Breast cancer)) is reported as 0.58 ± 0.03 µM and the IC50 (OVCAR-3 (Ovarian Cancer)) is reported as 6.31 ± 0.32 µM. The IC50 [2] was 13.7 ± 0.69 µM.
